Measurements: patent publication US20150175599A1, “FAAH Inhibitors” (Ironwood Pharmaceuticals, Inc., priority 2010, published 2015)

How the values were obtained:
[1] = molecular target: T1, human FAAH-1 (Homo sapiens, UniProt O00519); experiment: Whole cell anandamide hydrolysis assay (HeLa clone 5c5 transfected with human FAAH-1); format: cell-based; settings: HeLa clone 5c5 expressing human FAAH-1; read-out: human FAAH whole cell IC50
T1 sequence (O00519 1-579): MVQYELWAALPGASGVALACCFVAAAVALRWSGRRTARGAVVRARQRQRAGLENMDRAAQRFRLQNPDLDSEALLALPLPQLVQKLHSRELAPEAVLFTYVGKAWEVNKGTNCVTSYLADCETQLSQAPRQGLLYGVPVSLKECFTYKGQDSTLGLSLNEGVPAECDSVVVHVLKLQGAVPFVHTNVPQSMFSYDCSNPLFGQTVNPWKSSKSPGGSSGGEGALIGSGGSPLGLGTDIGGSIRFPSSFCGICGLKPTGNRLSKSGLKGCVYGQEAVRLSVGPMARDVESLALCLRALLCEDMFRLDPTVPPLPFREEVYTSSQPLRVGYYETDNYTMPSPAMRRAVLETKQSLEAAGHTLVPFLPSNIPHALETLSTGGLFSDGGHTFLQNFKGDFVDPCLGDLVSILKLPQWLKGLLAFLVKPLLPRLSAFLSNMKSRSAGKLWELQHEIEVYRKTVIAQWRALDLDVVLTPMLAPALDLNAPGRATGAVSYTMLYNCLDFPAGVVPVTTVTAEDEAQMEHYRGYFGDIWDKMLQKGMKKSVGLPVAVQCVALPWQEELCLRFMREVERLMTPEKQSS
Method: FAAH activity was assayed in whole cells using methods disclosed previously (Maccarone et al., 1998 J Biol. Chem. 273:32332 and Bisogno et al., 1997 J Biol. Chem. 272:3315). In addition to the cell lines described in Maccarone et al. and Bisogno et al., MCF7 (ATCC designation HTB-22) and T84 (ATCC designation CCL-248) cell lines were also used in these assays.
cDNA expression clone for human FAAH-1 (in pcDNA3 vector) (Genbank Accession U82535; obtained from Benjamin Cravatt, Scripps Research Institute, La Jolla, Calif.) was linearized by digestion with BglII (New England Biolabs) and transfected by calcium phosphate into human HeLa cells (ATCC catalog #CCL-2). […] Following transfection, a stable HeLa-derived clone, designated 5c5, was isolated by single colony purification and expanded and maintained in modified Eagles medium (MEM; VWR catalog #45000-300) containing 10% fetal bovine serum (FBS), 2 mM L-glutamine, and 0.5 mg/mL G-418 (Sigma catalog #G5013).
Clone 5c5 (50,000 cells in 150 μL) was seeded into 96-well plates and incubated overnight (5% CO2, 37° C.). Media was carefully replaced with 180 μL DMEM/F12 medium (VWR catalog #45000-350) containing 15 mM HEPES, pH 7.4 and 0.1% fatty acid free BSA (Sigma catalog #A0281). Then, 2 μL of 100× desired final concentrations of certain exemplary compounds described herein were made up in DMSO, added to wells containing cells, and plates were incubated at 37° C. for 10 min. Next, 20 μL of 5 μM anandamide (Cayman catalog #90050) spiked with 8 μCi of anandamide-(ethanolamine-1-[^3H]) (American Radiolabeled Chemicals, Inc., catalog #ART 626) was added to the cells and the plates were incubated for an additional 15 min at 37° C. The reactions were terminated by chilling the plates on ice and adding 20 μL of 0.5M of potassium phosphate buffer (adjusted to pH 2.1 with phosphoric acid).
The acidified reactions were transferred to 96-well filter plates (0.25 mL capacity/well, 1.2 micron glass fiber pre-filter packed above 0.65 micron pore-size PVDF membrane, Millipore catalog MSFCN6B50) containing 25 μL charcoal (neutral activated carbon, Fisher Scientific catalog C170-500) per well. Prior to the assay, charcoal was measured and loaded onto the plate using an aluminum 96-well column loading device (Millipore catalog MACL09625). The filter plate was assembled over an empty 96-well plate (Costar) using a centrifuge alignment frame (Millipore catalog MACF09604) to allow for collection of the filtrate in the receiver plate. The charcoal glass-fiber filter plates were pre-washed with methanol by centrifugation 650×g for 10 min). Next, 80 μL of water was added to the wells of the pre-washed 96 well charcoal filter plate. Then, 90 μL of the acidified reaction mixture was added to the water in the wells of the charcoal plate. The samples were centrifuged as above. The substrate remained bound to the charcoal, whereas the [^3H]-ethanolamine product formed flowed through and was transferred to the microplates containing scintillation cocktail and quantified in a micro-plate scintillation counter (Perkin-Elmer Microbeta). Control reactions with either no cells or cells treated with DMSO alone were performed in triplicate and used to define background (no cells) and 100% activity (DMSO alone).
Following subtraction of background radioactivity, data were expressed as percent inhibition relative to 100% activity and fit with a nonlinear regression curve using GraphPad Prism Software (GraphPad Software Inc). IC50 values were calculated from the resulting dose-response curves constrained at top and bottom to 100% and 0%, respectively.

[2] = Pharmacokinetic study, plasma level 2 hours after oral dosing in rats; format: in vivo
Method: Pharmacokinetic studies were conducted to determine absorption and distribution profiles of the disclosed compounds which were orally administered to rats.
Compounds were formulated in a 1% DMA/99% Vitamin E TPGS vehicle. Prepared compounds were dosed via oral gavage (PO). Following the appropriate pretreatment time of 2 hours, rats were anesthetized with isoflurane gas. Blood was collected into tubes containing EDTA via retro-orbital eye bleed. Whole blood was spun in a micro-centrifuge at approximately 13,000 rpm for 5 minutes at room temperature. Separated plasma was subsequently aliquoted into eppendorf tubes. Samples were stored at −80° C. until prepped for analysis.
Plasma samples were thawed and the required amount of plasma for standards, blanks and dilutions were made. The dilutions were prepared before plating. Preparation of crash solution included cold acetonitrile+0.1% formic acid and 25 ng/mL of a FAAH inhibitor used as internal standard. solvent standards of the FAAH inhibitor being studied were preparation at 10, 30, 100, 300, 1000, 3000, 10000, 30000, 100000, and 300000 ng/mL in DMSO. Then a plasma standard curve was generated from the solvent standards (final concentrations of standards in plasma were: 0.1, 0.3, 1, 3, 10, 30, 100, 300, 1000, 3000 ng/mL). 50 μL of each plasma sample/dilution, standard, or blank was transferred into 96-well plates. To each well, 200 μL of cold crash solution was added. The plate was covered and gently vortexed. The plate was centrifuged at 3500 rpm, 4° C. for 10 min. 200 μL of each supernatant was transferred into new plates. The plates were dried under nitrogen in a TurboVap at 55° C. The sample in each well was re-suspended with 100 μL of 30% acetonitrile, covered and vortexed gently. The well solutions were analyzed by the LC/MS/MS conditions and specifications below.
HPLC column was a Clipeus C8, 2.1×30 mm, 5 μm, with Basic 8 guard column using 20 μL injections. Mobile phase used was mobile phase A: 0.1% Formic Acid in water and mobile phase B: 0.1% Formic Acid in 85:10:5 ACN:IPA:H2O. The flow rate for the run was 0.5 mL/min and the gradient for the 4 minute total run time was: 0.0 minutes

SMILES | IC50 [1] [nM] | 2 hr plasma level-ng/mL (rat, 10 mg/kg PO, 2 hr) [2]
COc1cc(NC(=O)C(=O)c2c(C)n(Cc3ccc(Cl)cn3)c3cc(F)c(OC)cc23)ccn1 [Compound 64, 2-(1-((5-chloropyridin-2-yl)methyl)-6-fluoro-5-methoxy-2-methyl-1H-indol-3-yl)-N-(2-methoxypyridin-4-yl)-2-oxoacetamide] | < 100 | C (C = between 100 nM and 1000 nM)
COc1cnc2c(c1)c(C(=O)C(=O)Nc1ccnc(OC)c1)c(C)n2Cc1ccc(Cl)cn1 [Compound 41, 2-(1-((5-chloropyridin-2-yl)methyl)-5-methoxy-2-methyl-1H-pyrrolo[2,3-b]pyridin-3-yl)-N-(2-methoxypyridin-4-yl)-2-oxoacetamide] | < 100 | D (D = greater than 1000 nM)
COc1cc(NC(=O)C(=O)c2c(C)n(Cc3ncc(Cl)cc3F)c3cc(Cl)c(OC)cc23)ccn1 [Compound 97, 2-(6-chloro-1-((5-chloro-3-fluoropyridin-2-yl)methyl)-5-methoxy-2-methyl-1H-indol-3-yl)-N-(2-methoxypyridin-4-yl)-2-oxoacetamide] | < 100 | C (C = between 100 nM and 1000 nM)
COc1ccc(Cn2c(C)c(C(=O)C(=O)Nc3ccnc(OC)c3)c3cc(OC)c(Cl)cc32)nc1 [Compound 98, 2-(6-chloro-5-methoxy-1-((5-methoxypyridin-2-yl)methyl)-2-methyl-1H-indol-3-yl)-N-(2-methoxypyridin-4-yl)-2-oxoacetamide] | < 100 | C (C = between 100 nM and 1000 nM)
COc1cc(NC(=O)C(=O)c2c(C)n(Cc3ccc(F)cc3F)c3cc(F)c(OC)cc23)ccn1 [Compound 14, 2-(1-(2,4-difluorobenzyl)-6-fluoro-5-methoxy-2-methyl-1H-indol-3-yl)-N-(2-methoxypyridin-4-yl)-2-oxoacetamide] | < 100 | D (D = greater than 1000 nM)
Cc1c(C(=O)C(=O)Nc2cccc(Cl)c2)c2cc(O)ccc2n1Cc1ccc(Cl)cc1 [Compound 71, 2-(1-(4-chlorobenzyl)-5-hydroxy-2-methyl-1H-indol-3-yl)-N-(3-chlorophenyl)-2-oxoacetamide] | < 100 | A (A = Less than 10 nM)
COc1cc(NC(=O)C(=O)c2c(C)n(Cc3ncc(Cl)cc3Cl)c3cc(F)c(OC)cc23)ccn1 [Compound 13, 2-(1-((3,5-dichloropyridin-2-yl)methyl)-6-fluoro-5-methoxy-2-methyl-1H-indol-3-yl)-N-(2-methoxypyridin-4-yl)-2-oxoacetamide] | < 100 | C (C = between 100 nM and 1000 nM)
COc1ccc2c(C(=O)C(=O)Nc3ccnc(OC)c3)c(C)n(Cc3ccc(Cl)cc3)c2c1 [Compound 48, 2-(1-(4-chlorobenzyl)-6-methoxy-2-methyl-1H-indol-3-yl)-N-(2-methoxypyridin-4-yl)-2-oxoacetamide] | < 100 | C (C = between 100 nM and 1000 nM)
COc1cc(NC(=O)C(=O)c2c(C)n(Cc3ccc(Cl)cc3)c3cc(Cl)c(OC)cc23)ccn1 [Compound 55, 2-(6-chloro-1-(4-chlorobenzyl)-5-methoxy-2-methyl-1H-indol-3-yl)-N-(2-methoxypyridin-4-yl)-2-oxoacetamide] | < 100 | C (C = between 100 nM and 1000 nM)
COc1cnc2c(c1)c(C(=O)C(=O)Nc1ccnc(OC)c1)c(C)n2Cc1ccc(Cl)cc1 [Compound 38, 2-(1-(4-chlorobenzyl)-5-methoxy-2-methyl-1H-pyrrolo[2,3-b]pyridin-3-yl)-N-(2-methoxypyridin-4-yl)-2-oxoacetamide] | < 100 | C (C = between 100 nM and 1000 nM)
COc1ccc2c(c1)c(C(=O)C(=O)Nc1ccnc(OC)c1)c(C)n2Cc1cnc(Cl)cn1 [Compound 12, 2-(1-((5-chloropyrazin-2-yl)methyl)-5-methoxy-2-methyl-1H-indol-3-yl)-N-(2-methoxypyridin-4-yl)-2-oxoacetamide] | < 100 | C (C = between 100 nM and 1000 nM)
COc1cc(NC(=O)C(=O)c2c(C)n(Cc3ccc(Cl)cc3)c3ccc(OC)c(F)c23)ccn1 [Compound 59, 2-(1-(4-chlorobenzyl)-4-fluoro-5-methoxy-2-methyl-1H-indol-3-yl)-N-(2-methoxypyridin-4-yl)-2-oxoacetamide] | < 100 | C (C = between 100 nM and 1000 nM)
COc1cc(NC(=O)C(=O)c2c(C)n(Cc3ccc(Cl)cn3)c3ccc(Cl)cc23)ccn1 [Compound 63, 2-(5-chloro-1-((5-chloropyridin-2-yl)methyl)-2-methyl-1H-indol-3-yl)-N-(2-methoxypyridin-4-yl)-2-oxoacetamide] | < 100 | C (C = between 100 nM and 1000 nM)
COc1cnc2c(c1)c(C(=O)C(=O)Nc1ccnc(OC)c1)c(C)n2Cc1ncc(Cl)cc1F [Compound 34, 2-(1-((5-chloro-3-fluoropyridin-2-yl)methyl)-5-methoxy-2-methyl-1H-pyrrolo[2,3-b]pyridin-3-yl)-N-(2-methoxypyridin-4-yl)-2-oxoacetamide] | < 100 | D (D = greater than 1000 nM)
